Test results taken from ChEMBL document CHEMBL5042472, “Design, Synthesis, and Biological Evaluation of a Novel Photocaged PI3K Inhibitor toward Precise Cancer Treatment” (J Med Chem, 2021).
Activity calls are given as the source filed them. The calls are words filed in the database; no cut-off is given here.

What was measured:
HGC-27 [1] = assay: Antiproliferative activity against human HGC-27 cells assessed as reduction in cell viability incubated in dark for 96 hrs by MTT assay; type: functional, cell-based; conditions: HGC-27, 96 h
HGC-27 [2] = assay: Induction of cell cycle arrest in human HGC-27 cells assessed as accumulation at G0/G1 phase at 100 nM incubated for 24 hrs by flow cytometry; type: functional, cell-based
AGS = assay: Antiproliferative activity against human AGS cells assessed as reduction in cell viability incubated in dark for 96 hrs by MTT assay; type: functional, cell-based
HGC-27 [3] = assay: Inhibition of colony formation in human HGC-27 cells at 100 nM incubated for 24 hrs by crystal violet staining based assay; type: functional, cell-based
MGC-803 = assay: Antiproliferative activity against human MGC-803 cells assessed as reduction in cell viability irradiated with 365 nm of UV for 5 mins and incubated in dark for 96 hrs by MTT assay; type: functional, cell-based; conditions: MGC-803, light or radiation study
[4] = Retention time of the compound by HPLC analysis; type: physicochemical
HGC-27 [5] = assay: Induction of cell cycle arrest in human HGC-27 cells assessed as accumulation at G0/G1 phase at 100 nM irradiated with 365 nm UV light for 5 mins and incubated for 24 hrs by flow cytometry; type: functional, cell-based
BGC-823 = assay: Antiproliferative activity against human BGC-823 cells assessed as reduction in cell viability irradiated with 365 nm of UV for 5 mins and incubated in dark for 96 hrs by MTT assay; type: functional, cell-based; conditions: BGC-823, light or radiation study
[6] = molecular target: T1, Phosphatidylinositol 4,5-bisphosphate 3-kinase catalytic subunit delta isoform (Homo sapiens, UniProt O00329); assay: Inhibition of PI3K delta (unknown origin) using PIP2 as substrate incubated in dark at room temperature for 1 hr in presence of ATP by ADP-Glo luminescent assay
T1 sequence (O00329 whole entry): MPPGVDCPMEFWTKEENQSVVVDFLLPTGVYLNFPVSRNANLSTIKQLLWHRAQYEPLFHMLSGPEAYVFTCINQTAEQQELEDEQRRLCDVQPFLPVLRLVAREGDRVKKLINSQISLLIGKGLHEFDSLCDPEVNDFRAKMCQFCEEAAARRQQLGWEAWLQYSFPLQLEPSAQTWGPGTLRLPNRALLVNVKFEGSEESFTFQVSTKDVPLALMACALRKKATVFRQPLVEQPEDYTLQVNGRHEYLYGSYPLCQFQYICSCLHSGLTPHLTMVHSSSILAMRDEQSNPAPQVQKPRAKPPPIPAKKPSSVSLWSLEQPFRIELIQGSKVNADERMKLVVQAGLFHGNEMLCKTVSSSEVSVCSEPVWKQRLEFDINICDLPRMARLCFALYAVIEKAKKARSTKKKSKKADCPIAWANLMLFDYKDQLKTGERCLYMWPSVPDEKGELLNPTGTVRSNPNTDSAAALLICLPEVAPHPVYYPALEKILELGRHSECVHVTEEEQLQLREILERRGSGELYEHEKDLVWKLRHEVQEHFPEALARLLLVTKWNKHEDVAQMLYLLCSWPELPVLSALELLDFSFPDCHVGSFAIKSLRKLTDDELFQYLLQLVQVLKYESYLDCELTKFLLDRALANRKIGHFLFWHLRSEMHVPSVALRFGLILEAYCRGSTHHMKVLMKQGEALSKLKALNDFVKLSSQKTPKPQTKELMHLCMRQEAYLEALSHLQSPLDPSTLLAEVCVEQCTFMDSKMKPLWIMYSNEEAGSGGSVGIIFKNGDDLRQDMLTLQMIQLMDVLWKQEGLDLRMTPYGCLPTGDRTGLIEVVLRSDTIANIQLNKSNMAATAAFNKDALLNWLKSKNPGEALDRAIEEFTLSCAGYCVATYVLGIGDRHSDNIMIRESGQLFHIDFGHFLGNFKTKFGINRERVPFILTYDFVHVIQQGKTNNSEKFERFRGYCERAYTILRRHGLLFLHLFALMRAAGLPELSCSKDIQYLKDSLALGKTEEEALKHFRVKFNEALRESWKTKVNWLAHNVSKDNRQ

[7] = Stability in rat liver microsomes assessed as half life at 1 uM in presence of NADPH by LC-MS/MS analysis; type: ADME, Microsome
HCT-116 [8] = assay: Inhibition of PI3K/AKT signalling pathway in human HCT-116 cells assessed as downregulation of AKT phosphorylation at Ser473 residue at 100 nM irradiated with 365 nm UV light for 5 mins and incubated for 24 hrs by Western blot; type: cell-based
MG-63 = assay: Antiproliferative activity against human MG-63 cells assessed as reduction in cell viability incubated in dark for 96 hrs by MTT assay; type: functional, cell-based; conditions: MG-63, 96 h
HCT-116 [9] = assay: Inhibition of PI3K/AKT signalling pathway in human HCT-116 cells assessed as downregulation of […] phosphorylation at 100 nM irradiated with 365 nm UV light for 5 mins and incubated for 24 hrs by Western blot; type: cell-based
Homo sapiens [10] = species on record: Homo sapiens; assay: Anticancer activity against KOES-007 patient derived stomach cancer organoid assessed as inhibition of cell growth irradiated with 365 nm of UV light for 5 mins and incubated for 120 hrs; type: functional, tissue-based
HGC-27 [11] = assay: Inhibition of colony formation in human HGC-27 cells irradiated with 365 nm of UV light for 5 min at 100 nM incubated for 24 hrs by crystal violet staining based assay; type: functional, cell-based
HCT-116 [12] = assay: Anticancer activity against fluorescent labeled human HCT-116 cells xenografted in yolk of zebra embryo assessed as reduction in tumor size by measuring fluorescence density at 31.3 nM irradiated with 365 nm of UV light incubated for 48 hrs by fluorescence microscopic analysis; type: functional, cell-based
Homo sapiens [13] = species on record: Homo sapiens; assay: Anticancer activity against KOCO-096 patient derived colon cancer organoid assessed as inhibition of cell growth irradiated with 365 nm of UV light for 2 mins and incubated for 120 hrs; type: functional, tissue-based
HGC-27 [14] = assay: Antiproliferative activity against human HGC-27 cells assessed as reduction in cell viability irradiated with 365 nm of UV for 5 mins and incubated in dark for 96 hrs by MTT assay; type: functional, cell-based; conditions: HGC-27, light or radiation study
HCT-116 [15] = assay: Antiproliferative activity against human HCT-116 cells assessed as reduction in cell viability irradiated with 365 nm of UV for 5 mins and incubated in dark for 96 hrs by MTT assay; type: functional, cell-based; conditions: HCT-116, light or radiation study
HCT-116 [16] = assay: Antiproliferative activity against human HCT-116 cells assessed as reduction in cell viability incubated in dark for 96 hrs by MTT assay; type: functional, cell-based; conditions: HCT-116, 96 h
[17] = Plasma protein binding in rat at 1 uM by LC-MS/MS analysis; type: ADME, cell-free; conditions: read-out: PPB (converted)
HCT-116 [18] = assay: Inhibition of colony formation in human HCT-116 cells at 100 nM incubated for 24 hrs by crystal violet staining based assay; type: functional, cell-based
[19] = Photo stability of compound assessed as release of 2,4-difluoro-N-(2-methoxy-5-(4-methyl-8-(tetrahydro-2H-pyran-4-yloxy)quinazolin-6-yl)pyridin-3-yl)benzenesulfonamide by measuring half life irradiated with 365 nm of UV for 5 min measured by HPLC analysis; type: physicochemical
[20] = molecular target: Phosphatidylinositol 4,5-bisphosphate 3-kinase catalytic subunit gamma isoform (Homo sapiens, UniProt P48736); assay: Inhibition of PI3K gamma (unknown origin) using PIP2 as substrate incubated in dark at room temperature for 1 hr in presence of ATP by ADP-Glo luminescent assay
[21] = Stability of the compound in dark condition at room temperature after 6 month; type: physicochemical; conditions: 4380 h; time 6 months
HGC-27 [22] = assay: Inhibition of PI3K/AKT signalling pathway in human HGC-27 cells assessed as downregulation of AKT phosphorylation at […] residue at 100 nM irradiated with 365 nm UV light for 5 mins and incubated for 24 hrs by Western blot; type: cell-based

Sequence of Phosphatidylinositol 4,5-bisphosphate 3-kinase catalytic subunit gamma isoform (P48736 whole entry, canonical isoform): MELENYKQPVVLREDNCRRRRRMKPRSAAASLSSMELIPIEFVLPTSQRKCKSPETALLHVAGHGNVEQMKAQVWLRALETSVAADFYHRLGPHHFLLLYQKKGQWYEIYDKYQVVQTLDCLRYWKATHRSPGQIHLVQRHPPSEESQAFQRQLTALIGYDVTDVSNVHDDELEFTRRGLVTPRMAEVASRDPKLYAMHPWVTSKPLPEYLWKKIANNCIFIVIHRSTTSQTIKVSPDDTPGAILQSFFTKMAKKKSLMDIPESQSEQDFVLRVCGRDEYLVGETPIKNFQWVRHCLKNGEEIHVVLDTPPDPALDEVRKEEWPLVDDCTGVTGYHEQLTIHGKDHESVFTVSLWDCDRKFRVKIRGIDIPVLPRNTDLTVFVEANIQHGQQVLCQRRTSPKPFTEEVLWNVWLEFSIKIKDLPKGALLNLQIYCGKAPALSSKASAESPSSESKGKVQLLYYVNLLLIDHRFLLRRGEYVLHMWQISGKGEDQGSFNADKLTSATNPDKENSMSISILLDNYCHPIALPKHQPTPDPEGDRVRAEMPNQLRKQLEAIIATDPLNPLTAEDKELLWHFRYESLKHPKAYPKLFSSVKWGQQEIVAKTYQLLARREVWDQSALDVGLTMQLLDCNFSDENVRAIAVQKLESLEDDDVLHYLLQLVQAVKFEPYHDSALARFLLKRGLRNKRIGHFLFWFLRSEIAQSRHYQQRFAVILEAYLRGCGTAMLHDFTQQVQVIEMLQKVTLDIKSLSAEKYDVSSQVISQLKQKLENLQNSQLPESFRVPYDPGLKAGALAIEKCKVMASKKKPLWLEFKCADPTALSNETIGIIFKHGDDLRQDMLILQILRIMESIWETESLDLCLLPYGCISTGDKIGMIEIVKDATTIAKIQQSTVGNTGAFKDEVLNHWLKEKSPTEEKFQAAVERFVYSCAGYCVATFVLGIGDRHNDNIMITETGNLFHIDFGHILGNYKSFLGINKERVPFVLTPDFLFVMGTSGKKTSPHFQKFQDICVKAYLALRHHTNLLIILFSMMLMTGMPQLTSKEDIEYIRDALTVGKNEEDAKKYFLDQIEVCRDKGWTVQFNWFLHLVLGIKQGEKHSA

COc1cc(CN(c2cc(-c3cc(OC4CCOCC4)c4ncnc(C)c4c3)cnc2OC)S(=O)(=O)c2ccc(F)cc2F)c([N+](=O)[O-])cc1OC
IC50 (HGC-27 [1]): 248 nM | Activity (HGC-27 [2]): inactive | IC50 (AGS): 924 nM | inhibition (HGC-27 [3]): inactive | IC50 (MGC-803): 329 nM | Retention_time [4]: 4.7 min | Activity (HGC-27 [5]): Active | IC50 (BGC-823): 103 nM | IC50 [6]: 3010 nM | half-life at 1 µM [7]: 1.82 min | inhibition (HCT-116 [8]): Active | IC50 (MG-63): 1840 nM | inhibition (HCT-116 [9]): Active | Activity (Homo sapiens [10]): Dose-Dependent Effect | inhibition (HGC-27 [11]): Active | Activity (HCT-116 [12]): Active | Activity (Homo sapiens [13]): Active | IC50 (HGC-27 [14]): 13.8 nM | IC50 (HCT-116 [15]): 81 nM | IC50 (HCT-116 [16]): 1460 nM | fraction unbound at 1 µM [17]: 0.006 | inhibition (HCT-116 [18]): inactive | t1/2 [19]: 5 min | IC50 [20]: 4470 nM | Stability [21]: Stable | inhibition (HGC-27 [22]): Active
